{
  "source": "patent US20240000738A1",
  "about": "“HYDROXYSTEARIC ACID FOR INDUCING GENERATION OF ANTIMICROBIAL PEPTIDES” (Conopco, Inc., d/b/a UNILEVER, priority 2020, published 2024)",
  "format_in_all_cases": "cell-based, Human",
  "key": {"LL-37": {"system": "LL-37", "test": "AMP gene expression in keratinocytes (real time qPCR), LL-37", "details": "NHEK cells, 12HSA at 1 μM (=0.00003 wt %), 24 h", "from_the_text": "(§1) The following protocol was used for evaluating actives (12-HSA) on keratinocytes for AMP gene expression Normal Human Epidermal Keratinocyte cells (NHEK), EpiLife Keratinocyte Growth Medium (KGM) (with antibiotics Pen-Strep), Dulbecco's Phosphate Buffered Salone (DPBS), Trypsin-EDTA, Trypsin Neutralizer Solution, Ethanol, RNA extraction kit (RNeasy kit), RLT buffer, RT-PCR kit. • 1. Thaw the NHEK cells and expand them in KGM in 2-25 cc and then 75 cc flasks to 80% confluency, changing media every alternate day and incubating at 37° C. in a 5% CO2 incubator. • 2. Discard spent media and rinse the adhered cells in the flask with DPBS. Add Trypsin-EDTA and tap to dislodge the adhered cells. Add Trypsin Neutralizer and gently mix it. • 3. Transfer the contents to a 15-ml tube and spin down the cells. Discard supernatant and resuspend cells in KGM. Count and seed 30,000-50,000 cells per well in 24 well TC plates, incubate to 80-85% confluence (˜2-3 days). Change media every alternate day. Add differentiation media (KGM with 2 mM CaCl2) and incubate for 2-3 days. • 4. Prepare actives in KGM at the required concentration (final concentration of ethanol solvent, if used, should be less than 0.1%). • 5. […] Perform RNA extraction as per the kit, quantify the RNA, do cDNA synthesis and do real time qPCR for cDNA samples. […]"}, "HBD-3": {"system": "HBD-3", "test": "AMP gene expression in keratinocytes (real time qPCR), HBD-3", "details": "NHEK cells, 12HSA at 1 μM (=0.00003 wt %), 24 h", "from_the_text": "as §1"}, "Psoriasin (S100A7)": {"system": "Psoriasin (S100A7)", "test": "AMP secretion from keratinocytes (Psoriasin ELISA)", "details": "NHEK cells, 72 h, ELISA of supernatant", "from_the_text": "Psoriasin (S100A7) AMP from the above list was chosen to study the effect of concentration of 12-HSA on the secretion of the AMP. The procedure used was as follows: Normal Human Epidermal Keratinocyte cells (NHEK), EpiLife Keratinocyte Growth Medium (KGM) (with antibiotics Pen-Strep), Dulbecco's Phosphate Buffered Salone (DPBS), Trypsin-EDTA, Trypsin Neutralizer Solution, Ethanol, Psoriasin ELISA Kit. • 1. Thaw the NHEK cells and expand them in KGM in 2 -25 cc and then 75 cc flasks to 80% confluency, changing media every alternate day and incubating at 37° C. in a 5% CO2 incubator. • 2. Discard spent media and rinse the adhered cells in the flask with DPBS. Add Trypsin-EDTA and tap to dislodge the adhered cells. Add Trypsin Neutralizer and gently mix it. • 3. Transfer the contents to a 15-ml tube and spin down the cells. Discard supernatant and resuspend cells in KGM. Count and seed 30,000-50,000 cells per well in 24 well TC plates, incubate to 80-85% confluence (˜2-3 days). Change media every alternate day. Add differentiation media (KGM with 2 mM CaCl2) and incubate for 2-3 days. • 4. Prepare actives in KGM at the required concentration (final concentration of ethanol solvent, if used, should be less than 0.1%). • 5. Replace the differentiation media with the actives containing media and incubate for 72 h • 6. Collect supernatant and store at −80° C. Thaw them completely before performing ELISA to measure AMP (Psoriasin). • 7. For ELISA, run the required standards and samples (undiluted and diluted) and using standard plot, the amount of AMP in samples calculated."}, "S100A7": {"system": "S100A7", "test": "AMP gene expression in keratinocytes (real time qPCR), S100A7", "details": "NHEK cells, 12HSA at 1 μM (=0.00003 wt %), 24 h", "from_the_text": "as §1"}, "RNase7": {"system": "RNase7", "test": "AMP gene expression in keratinocytes (real time qPCR), RNase7", "details": "NHEK cells, 12HSA at 1 μM (=0.00003 wt %), 24 h", "from_the_text": "as §1"}},
  "data": [
    {"smiles": "CCCCCCC(O)CCCCCCCCCCC(=O)O", "note": "(centres unmarked) [12-HSA, 12-hydroxystearic acid]", "values": [
      {"measurement": "Fold change with respect to control, AMP gene LL-37", "setting": "LL-37", "value": 2.09, "unit": "fold"},
      {"measurement": "Fold change with respect to control, AMP gene HBD-3", "setting": "HBD-3", "value": 2.16, "unit": "fold"},
      {"measurement": "Fold change with respect to control (Psoriasin increase)", "setting": "Psoriasin (S100A7); 0.25 μM 12-HSA", "value": 8.12, "unit": "fold"},
      {"measurement": "Fold change with respect to control (Psoriasin increase)", "setting": "Psoriasin (S100A7); 0.50 μM 12-HSA", "value": 15.07, "unit": "fold"},
      {"measurement": "Fold change with respect to control (Psoriasin increase)", "setting": "Psoriasin (S100A7); 1.0 μM 12-HSA", "value": 9.79, "unit": "fold"},
      {"measurement": "Fold change with respect to control (Psoriasin increase)", "setting": "Psoriasin (S100A7); 2.0 μM 12-HSA", "value": 15.70, "unit": "fold"},
      {"measurement": "Fold change with respect to control, AMP gene S100A7", "setting": "S100A7", "value": 1.66, "unit": "fold"},
      {"measurement": "Fold change with respect to control, AMP gene RNase7", "setting": "RNase7", "value": 2.56, "unit": "fold"}
    ]}
  ]
}
